Data: patent US8530493B2, “Indolopyridines as Eg5 kinesin modulators” (4SC AG, priority 2006, dated 2013)

Tests used:
[1] = test system: RKO p27 induced (arrested) colon adenocarcinoma cells; assay: Alamar Blue cell viability assay, RKO p27 induced by Ponasterone A (arrested); assay type: cell-based; settings: Homo sapiens, RKOp27, Table B1, cells arrested by Ponasterone A-induced p27Kip1, 72 hours, read-out: −log EC50 RKO p27 induced (arrested) (converted)
Summary of the method: (§1)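 RKOp21 or RKOp27 subclones in DMEM/10% FCS with 10 μM Ponasterone A to induce p21/p27 arrest, seeded 24 h before compound; triplicate 72 h exposure at 37 °C. Alamar Blue fluorescence (544/590 nm) as % of untreated (1% DMSO) cells; EC50 from dose-response curves, reported as −log EC50 (mol/l).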

[2] = test system: RKO p27 uninduced (proliferating) colon adenocarcinoma cells; assay: Alamar Blue cell viability assay, RKO p27 uninduced (proliferating); assay type: cell-based; settings: Homo sapiens, RKOp27, Table B1, anti-proliferative/cytotoxic activity, 72 hours, read-out: −log EC50 RKO p27 uninduced (proliferating) (converted)
Summary of the method: (§2)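 Viability read by Alamar Blue fluorescence (ex 544, em 590 nm), normalised to untreated wells, after 72 h, 37° C, 5% CO2 compound exposure in triplicate. Cells were uninduced (no Ponasterone A), proliferating RKO colon carcinoma p27 or p21 subclones in DMEM with 10% FCS; values are −log EC50 (mol/l).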

[3] = test system: RKO p27 or p21 induced (arrested) colon adenocarcinoma cells; assay: Alamar Blue cell viability assay, RKO p27 or p21 induced (arrested); assay type: cell-based; settings: Homo sapiens, RKOp27, Table B2, cells arrested by Ponasterone A, 72 hours, read-out: −log EC50 RKO p27 or p21 induced (arrested) (converted)
Summary of the method: as §1

[4] = test system: RKO p27 or p21 uninduced (proliferating) colon adenocarcinoma cells; assay: Alamar Blue cell viability assay, RKO p27 or p21 uninduced (proliferating); assay type: cell-based; settings: Homo sapiens, RKOp27, Table B2, anti-proliferative/cytotoxic activity, 72 hours, read-out: −log EC50 RKO p27 or p21 uninduced (proliferating) (converted)
Summary of the method: as §2

Row | melting point [°C] | EC50 [1] [nM] | Compound | EC50 [2] [nM] | EC50 [3] [nM] | EC50 [4] [nM]
1 | 262 to 264 |  | C[C@@]12Cc3c([nH]c4ccc(Cl)cc34)[C@@H](c3cccc(O)c3)N1C(=O)N(CCBr)C2=O (racemic) |  |  | 
2 | 286 to 288 | ≥ 3160 | CN(C)CCN1C(=O)N2[C@H](c3cccc(O)c3)c3[nH]c4ccc(Br)cc4c3C[C@@]2(C)C1=O (racemic) [Example 8, (3aSR,10RS)-6-Bromo-2-(2-dimethylamino-ethyl)-10-(3-hydroxy-phenyl)-3a-methyl-3a,4,9,10-tetrahydro-2,9,10a-triaza-cyclopenta[b]fluorene-1,3-dione] | ≤ 39.8 |  | 
3 | 283 to 286 | ≥ 3160 | CN(C)CCN1C(=O)N2[C@H](c3cccc(O)c3)c3[nH]c4ccc(Cl)cc4c3C[C@@]2(C)C1=O (racemic) [Example 9, (3aSR,10RS)-6-Chloro-2-(2-dimethylamino-ethyl)-10-(3-hydroxy-phenyl)-3a-methyl-3a,4,9,10-tetrahydro-2,9,10a-triaza-cyclopenta[b]fluorene-1,3-dione] | ≤ 39.8 |  | 
4 |  | ≥ 316 | CCOc1ccc2[nH]c3c(c2c1)C[C@@]1(C)C(=O)N(CCN)C(=O)N1[C@@H]3c1cccc(O)c1 (racemic) [Example 45, (3aSR,10RS)-2-(2-Amino-ethyl)-6-ethoxy-10-(3-hydroxy-phenyl)-3a-methyl-3a,4,9,10-tetrahydro-2,9,10a-triaza-cyclopenta[b]fluorene-1,3-dione] | ≤ 39.8 |  | 
5 |  | ≥ 3160 | CCN(C)CCN1C(=O)N2[C@H](c3cccc(O)c3)c3[nH]c4ccc(OC)cc4c3C[C@@]2(C)C1=O (racemic) [Example 52, (3aSR,10RS)-2-[2-(Ethyl-methyl-amino)-ethyl]-10-(3-hydroxy-phenyl)-6-methoxy-3a-methyl-3a,4,9,10-tetrahydro-2,9,10a-triaza-cyclopenta[b]fluorene-1,3-dione] | ≤ 39.8 |  | 
6 |  | ≥ 3160 | COc1ccc2[nH]c3c(c2c1)C[C@@]1(C)C(=O)N(CCN(C)C)C(=O)N1[C@@H]3c1cccc(O)c1 (single isomer, unassigned) [Example 7b, (−)-2-(2-Dimethylamino-ethyl)-10-(3-hydroxy-phenyl)-6-methoxy-3a-methyl-3a,4,9,10-tetrahydro-2,9,10a-triaza-cyclopenta[b]fluorene-1,3-dione] | ≤ 39.8 |  | 

Continued, compound first:

Row | Compound | melting point [°C] | EC50 [1] [nM] | EC50 [2] [nM] | EC50 [3] [nM] | EC50 [4] [nM]
7 | COc1ccc2[nH]c3c(c2c1)C[C@@]1(C)C(=O)N(CCN2CCOCC2)C(=O)N1[C@@H]3c1cccc(O)c1 (racemic) [Example 10, (3aSR,10RS)-10-(3-Hydroxy-phenyl)-6-methoxy-3a-methyl-2-(2-morpholin-4-yl-ethyl)-3a,4,9,10-tetrahydro-2,9,10a-triaza-cyclopenta[b]fluorene-1,3-dione] | 260 to 263 | ≥ 3160 | ≤ 39.8 |  | 
8 | COc1ccc2[nH]c3c(c2c1)C[C@@]1(C)C(=O)N(CCN2CCCC2)C(=O)N1[C@@H]3c1cccc(O)c1 (racemic) [Example 11, (3aSR,10RS)-10-(3-Hydroxy-phenyl)-6-methoxy-3a-methyl-2-(2-pyrrolidin-1-yl-ethyl)-3a,4,9,10-tetrahydro-2,9,10a-triaza-cyclopenta[b]fluorene-1,3-dione] | 252 to 255 | ≥ 3160 | ≤ 39.8 |  | 
9 | COc1ccc2[nH]c3c(c2c1)C[C@@]1(C)C(=O)N(CCN2CCN(C)CC2)C(=O)N1[C@@H]3c1cccc(O)c1 (racemic) [Example 12, (3aSR,10RS)-10-(3-Hydroxy-phenyl)-6-methoxy-3a-methyl-2-[2-(4-methyl-piperazin-1-yl)ethyl]-3a,4,9,10-tetrahydro-2,9,10a-triaza-cyclopenta[b]fluorene-1,3-dione] | 224 to 227 | ≥ 3160 | 39.8 to 251 |  | 
10 | COc1ccc2[nH]c3c(c2c1)C[C@@]1(C)C(=O)N(CCn2ccnc2)C(=O)N1[C@@H]3c1cccc(O)c1 (racemic) [Example 13, (3aSR,10RS)-10-(3-Hydroxy-phenyl)-2-(2-imidazol-1-yl-ethyl)-6-methoxy-3a-methyl-3a,4,9,10-tetrahydro-2,9,10a-triaza-cyclopenta[b]fluorene-1,3-dione] | 321 to 324 | ≥ 3160 | 39.8 to 251 |  | 
11 | COc1ccc2[nH]c3c(c2c1)C[C@@]1(C)C(=O)N(CCCN(C)C)C(=O)N1[C@@H]3c1cccc(O)c1 (racemic) [Example 15, (3aSR,10RS)-2-(3-Dimethylamino-propyl)-10-(3-hydroxy-phenyl)-6-methoxy-3a-methyl-3a,4,9,10-tetrahydro-2,9,10a-triaza-cyclopenta[b]fluorene-1,3-dione] | 228 to 231 | ≥ 3160 | ≤ 39.8 |  | 
12 | CCOc1ccc2[nH]c3c(c2c1)C[C@@]1(C)C(=O)N(CCBr)C(=O)N1[C@@H]3c1cccc(O)c1 (racemic) [Example 22, (3aSR,10RS)-2-(2-Bromo-ethyl)-6-ethoxy-10-(3-hydroxy-phenyl)-3a-methyl-3a,4,9,10-tetrahydro-2,9,10a-triaza-cyclopenta[b]fluorene-1,3-dione] | 250 to 252 | ≥ 3160 | 39.8 to 251 | ≥ 316 | ≤ 39.8
13 | COc1ccc2[nH]c3c(c2c1)C[C@@]1(C)C(=O)N(CCBr)C(=O)N1[C@@H]3c1cccc(O)c1 (racemic) [Example 24, (3aSR,10RS)-2-(2-Bromo-ethyl)-10-(3-hydroxy-phenyl)-6-methoxy-3a-methyl-3a,4,9,10-tetrahydro-2,9,10a-triaza-cyclopenta[b]fluorene-1,3-dione] | 299 to 302 | ≥ 3160 | 39.8 to 251 |  | 
14 | CCOc1ccc2[nH]c3c(c2c1)C[C@@]1(C)C(=O)N(CCN2CCC2)C(=O)N1[C@@H]3c1cccc(O)c1 (racemic) [Example 46, (3aSR,10RS)-2-(2-Azetidin-1-yl-ethyl)-6-ethoxy-10-(3-hydroxy-phenyl)-3a-methyl-3a,4,9,10-tetrahydro-2,9,10a-triaza-cyclopenta[b]fluorene-1,3-dione] |  | ≥ 3160 | ≤ 39.8 |  | 
15 | COc1ccc2[nH]c3c(c2c1)C[C@@]1(C)C(=O)N(CCNC(C)C)C(=O)N1[C@@H]3c1cccc(O)c1 (racemic) [Example 47, (3aSR,10RS)-10-(3-Hydroxy-phenyl)-2-(2-isopropylamino-ethyl)-6-methoxy-3a-methyl-3a,4,9,10-tetrahydro-2,9,10a-triaza-cyclopenta[b]fluorene-1,3-dione] |  | ≥ 3160 | ≤ 39.8 |  | 
16 | COc1ccc2[nH]c3c(c2c1)C[C@@]1(C)C(=O)N(CCNCC2CC2)C(=O)N1[C@@H]3c1cccc(O)c1 (racemic) [Example 48, (3aSR,10RS)-2-[2-(Cyclopropylmethyl-amino)-ethyl]-10-(3-hydroxy-phenyl)-6-methoxy-3a-methyl-3a,4,9,10-tetrahydro-2,9,10a-triaza-cyclopenta[b]fluorene-1,3-dione] |  | ≥ 3160 | ≤ 39.8 |  | 
17 | COc1ccc2[nH]c3c(c2c1)C[C@@]1(C)C(=O)N(CCNCC(C)C)C(=O)N1[C@@H]3c1cccc(O)c1 (racemic) [Example 49, (3aSR,10RS)-10-(3-Hydroxy-phenyl)-2-(2-isobutylamino-ethyl)-6-methoxy-3a-methyl-3a,4,9,10-tetrahydro-2,9,10a-triaza-cyclopenta[b]fluorene-1,3-dione] |  | ≥ 3160 | ≤ 39.8 |  | 
18 | COc1ccc2[nH]c3c(c2c1)C[C@@]1(C)C(=O)N(CCNC2CCC2)C(=O)N1[C@@H]3c1cccc(O)c1 (racemic) [Example 50, (3aSR,10RS)-2-(2-Cyclobutylamino-ethyl)-10-(3-hydroxy-phenyl)-6-methoxy-3a-methyl-3a,4,9,10-tetrahydro-2,9,10a-triaza-cyclopenta[b]fluorene-1,3-dione] |  | ≥ 3160 | ≤ 39.8 |  | 
19 | CCNCCCN1C(=O)N2[C@H](c3cccc(O)c3)c3[nH]c4ccc(OC)cc4c3C[C@@]2(C)C1=O (racemic) [Example 51, (3aSR,10RS)-2-(3-Ethylamino-propyl)-10-(3-hydroxy-phenyl)-6-methoxy-3a-methyl-3a,4,9,10-tetrahydro-2,9,10a-triaza-cyclopenta[b]fluorene-1,3-dione] |  | ≥ 3160 | ≤ 39.8 |  | 
20 | COc1ccc2[nH]c3c(c2c1)C[C@@]1(C)C(=O)N(CCNC2CC2)C(=O)N1[C@@H]3c1cccc(O)c1 (racemic) [Example 53, (3aSR,10RS)-2-(2-Cyclopropylamino-ethyl)-10-(3-hydroxy-phenyl)-6-methoxy-3a-methyl-3a,4,9,10-tetrahydro-2,9,10a-triaza-cyclopenta[b]fluorene-1,3-dione] |  | ≥ 3160 | ≤ 39.8 |  | 
